Experimental findings from the Kinase Knowledgebase extract (Sharma et al. 2016) are described below.

Some results are limits rather than exact numbers.

In the assay the target is EGFR (human) (UniProt P00533).
Sequence of EGFR (human) (P00533 whole entry, looked up): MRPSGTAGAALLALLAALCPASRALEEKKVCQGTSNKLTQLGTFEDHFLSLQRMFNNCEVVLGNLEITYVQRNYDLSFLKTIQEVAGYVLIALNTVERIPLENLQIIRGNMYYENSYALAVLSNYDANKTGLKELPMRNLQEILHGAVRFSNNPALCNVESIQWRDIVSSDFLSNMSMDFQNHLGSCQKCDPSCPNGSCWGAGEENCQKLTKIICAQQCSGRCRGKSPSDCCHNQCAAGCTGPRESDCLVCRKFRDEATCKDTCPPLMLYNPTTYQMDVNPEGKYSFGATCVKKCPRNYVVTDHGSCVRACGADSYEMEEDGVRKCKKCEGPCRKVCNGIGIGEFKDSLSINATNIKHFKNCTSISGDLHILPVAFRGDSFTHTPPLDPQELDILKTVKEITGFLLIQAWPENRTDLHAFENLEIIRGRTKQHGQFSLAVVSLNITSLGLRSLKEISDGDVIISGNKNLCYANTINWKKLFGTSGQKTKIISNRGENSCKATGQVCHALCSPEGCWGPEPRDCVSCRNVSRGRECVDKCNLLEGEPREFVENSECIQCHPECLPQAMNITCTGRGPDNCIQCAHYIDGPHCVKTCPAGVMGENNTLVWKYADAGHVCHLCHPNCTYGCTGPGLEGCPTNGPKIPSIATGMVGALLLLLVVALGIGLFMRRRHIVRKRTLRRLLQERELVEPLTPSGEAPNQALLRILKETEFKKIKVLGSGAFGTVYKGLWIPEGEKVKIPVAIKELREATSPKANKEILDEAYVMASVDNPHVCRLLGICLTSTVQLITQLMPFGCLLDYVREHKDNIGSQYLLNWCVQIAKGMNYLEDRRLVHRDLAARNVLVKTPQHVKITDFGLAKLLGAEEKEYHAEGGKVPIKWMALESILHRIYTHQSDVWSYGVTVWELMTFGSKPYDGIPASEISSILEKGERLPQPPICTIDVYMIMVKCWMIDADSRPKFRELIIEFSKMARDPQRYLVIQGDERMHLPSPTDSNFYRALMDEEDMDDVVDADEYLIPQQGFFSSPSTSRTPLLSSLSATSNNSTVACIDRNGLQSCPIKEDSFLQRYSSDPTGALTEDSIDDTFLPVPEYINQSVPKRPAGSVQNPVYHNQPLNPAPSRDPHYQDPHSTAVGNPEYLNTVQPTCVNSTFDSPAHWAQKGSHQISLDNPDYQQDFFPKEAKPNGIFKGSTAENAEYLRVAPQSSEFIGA

The term IC50 denotes the concentration at which inhibition is half-maximal. As to `O=C(Nc1cccc(-c2nc(N3CCCCC3)sc2-c2ccnc(Nc3cccc(CN4CCCC4)c3)n2)c1)c1c(F)cccc1F`, the IC50 was less than 100 nM.

Consider `CN(C)C1Cc2ccc(Nc3nccc(-c4scnc4-c4cccc(NC(=O)Cc5cccs5)c4)n3)cc2C1` (centres undefined), for which the IC50 was less than 100 nM.

Regarding `Cc1nc(-c2cccc(NC(=O)c3c(F)cccc3F)c2)c(-c2ccnc(Nc3ccc(OC4CCNCC4)c(F)c3)n2)s1`, the IC50 is less than 100 nM.

As for `COc1ccc(Nc2nccc(-c3sc(NCCN4CCOCC4)nc3-c3cccc(NC(=O)c4cc(F)ccc4F)c3)n2)cc1F`, the IC50 is less than 100 nM.

For `O=C(Nc1cccc(-c2ncsc2-c2ccnc(Nc3cccc(CN4CCCC4)c3)n2)c1)c1c(F)cccc1F`, the IC50 is less than 100 nM.

`CN1CCc2ccc(Nc3nccc(-c4sc(N5CCCC5)nc4-c4cccc(NC(=O)c5c(F)cccc5F)c4)n3)cc2C1` had a half-inhibitory concentration (IC50) of less than 100 nM.

In turn, `Cc1nc(-c2cccc(NC(=O)c3c(F)cccc3F)c2)c(-c2ccnc(Nc3cccc(CN4CCCC4)c3)n2)s1` returned an IC50 of less than 100 nM.

`CN(C)c1nc(-c2cccc(NC(=O)c3c(F)cccc3F)c2)c(-c2ccnc(Nc3ccc(OCCN4CCCC4)c(Cl)c3)n2)s1` displayed an IC50 of less than 100 nM.

`CN(C)CCOc1ccc(Nc2nccc(-c3sc(NCCCN4CCOCC4)nc3-c3cccc(NC(=O)c4c(F)cccc4F)c3)n2)cc1Cl` gave a half-inhibitory concentration (IC50) of less than 100 nM.

Take `NS(=O)(=O)CCc1cccc(Nc2nccc(-c3scnc3-c3cccc(NC(=O)c4cc(F)ccc4F)c3)n2)c1`: the IC50 was less than 100 nM.

Regarding `Nc1nc(-c2cccc(NC(=O)c3c(F)cccc3F)c2)c(-c2ccnc(Nc3ccc4c(c3)NC(=O)CO4)n2)s1`, the concentration for half-maximal inhibition (IC50) was less than 100 nM.

In turn, `CN(C)CCOc1cccc(Nc2nccc(-c3scnc3-c3cccc(NC(=O)c4cc(F)ccc4F)c3)n2)c1` displayed an IC50 of less than 100 nM.

For the molecule `CC(C)(C)S(=O)(=O)Cc1nc(-c2cccc(NC(=O)c3c(F)cccc3F)c2)c(-c2ccnc(Nc3ccc(OCCN4CCCC4)c(Cl)c3)n2)s1`, the IC50 was less than 100 nM.

Turning to `CN(C)c1nc(-c2cccc(NC(=O)c3c(F)cccc3F)c2)c(-c2ccnc(Nc3cccc(CN4CCCC4)c3)n2)s1`, the IC50 is less than 100 nM.

In turn, `COc1ccc(Nc2nccc(-c3scnc3-c3cccc(NC(=O)Cc4cccs4)c3)n2)cc1OCCN(C)C` yielded a half-inhibitory concentration (IC50) of less than 100 nM.

Turning to `COc1cc(Nc2nccc(-c3sc(N)nc3-c3cccc(NC(=O)c4c(F)cccc4F)c3)n2)cc(OC)c1OC`, the IC50 is less than 100 nM.

For the molecule `O=C(Nc1cccc(-c2nc(CF)sc2-c2ccnc(Nc3ccc(OCCN4CCCC4)c(F)c3)n2)c1)c1c(F)cccc1F`, the IC50 was less than 100 nM.

For `Nc1nc(-c2cccc(NC(=O)C3CCCCC3)c2)c(-c2ccnc(Nc3ccc4c(c3)CNCC4)n2)s1`, the IC50 was less than 100 nM.

`CN(C)CCOc1ccc(Nc2nccc(-c3sc(N)nc3-c3cccc(NC(=O)c4cc(F)ccc4F)c3)n2)cc1Cl`: the IC50 is less than 100 nM.

Consider `Cc1nc(-c2cccc(NC(=O)c3cc(F)ccc3F)c2)c(-c2ccnc(Nc3ccc(OCCN(C)C)c(F)c3)n2)s1`, for which the IC50 was less than 100 nM.

`CN(C)c1nc(-c2cccc(NC(=O)c3c(F)cccc3F)c2)c(-c2ccnc(Nc3ccc(N4CCOCC4)c(Cl)c3)n2)s1` gave an IC50 of less than 100 nM.

Consider `O=C(Nc1cccc(-c2nc(NC3CC3)sc2-c2ccnc(Nc3ccc(OCCN4CCCC4)c(F)c3)n2)c1)c1c(F)cccc1F`, for which the half-maximal inhibitory concentration (IC50) was less than 100 nM.

`Cc1nc(-c2cccc(NC(=O)c3cccnc3F)c2)c(-c2ccnc(Nc3ccc4c(c3)CN(C)CC4)n2)s1` yielded an IC50 of less than 100 nM.

Turning to `Nc1nc(-c2cccc(NC(=O)c3c(F)cccc3F)c2)c(-c2ccnc(Nc3cccc(F)c3)n2)s1`, the IC50 is less than 100 nM.

`Cc1nc(-c2cccc(NC(=O)c3cccc(Cl)c3)c2)c(-c2ccnc(Nc3ccc(OCCN(C)C)c(Cl)c3)n2)s1` came in with a 50% inhibitory concentration (IC50) of less than 100 nM.

Regarding `Cc1nc(-c2cccc(NC(=O)c3c(F)cccc3F)c2)c(-c2ccnc(Nc3ccc(OC4CCN(C(=O)OCc5ccccc5)CC4)c(F)c3)n2)s1`, the IC50 is less than 100 nM.

`CNc1nc(-c2cccc(NC(=O)c3cc(F)ccc3F)c2)c(-c2ccnc(Nc3ccc(OC)c(F)c3)n2)s1` registered an IC50 of less than 100 nM.

`CN(C)CCOc1ccc(Nc2nccc(-c3scnc3-c3cccc(NC(=O)c4c(F)cccc4F)c3)n2)cc1Cl` registered an IC50 of less than 100 nM.

Take `O=C(Nc1cccc(-c2nc(CO)sc2-c2ccnc(Nc3ccc(OCCN4CCCC4)c(F)c3)n2)c1)c1c(F)cccc1F`: the IC50 was less than 100 nM.

Take `CC(C)(C)c1nc(-c2cccc(NC(=O)c3c(F)cccc3F)c2)c(-c2ccnc(Nc3cccc(CN4CCCC4)c3)n2)s1`: the IC50 is less than 100 nM.

`CS(=O)(=O)CCN1CCN(c2ccc(Nc3nccc(-c4scnc4-c4cccc(NC(=O)c5c(F)cccc5F)c4)n3)cc2F)CC1` yielded a half-maximal inhibitory concentration (IC50) of less than 100 nM.

`Cc1nc(-c2cccc(NC(=O)c3c(F)cccc3F)c2)c(-c2ccnc(Nc3ccc(OCCN(C)C)c(Cl)c3)n2)s1` registered an IC50 of less than 100 nM.

`CC(=O)Nc1nc(-c2cccc(NC(=O)c3c(F)cccc3F)c2)c(-c2ccnc(Nc3cccc(CN4CCCC4)c3)n2)s1` gave an IC50 of less than 100 nM.

`CN1CCc2ccc(Nc3nccc(-c4sc(CS(=O)(=O)C(C)(C)C)nc4-c4cccc(NC(=O)c5c(F)cccc5F)c4)n3)cc2C1`: the IC50 was less than 100 nM.

For the molecule `O=C(Nc1cccc(-c2nc(N3CCC3)sc2-c2ccnc(Nc3ccc(OCCN4CCCC4)c(Cl)c3)n2)c1)c1c(F)cccc1F`, the 50% inhibitory concentration (IC50) is less than 100 nM.

For `Cc1nc(-c2cccc(NC(=O)c3cc(F)ccc3F)c2)c(-c2ccnc(Nc3ccc(OCCN(C)C)c(Cl)c3)n2)o1`, the IC50 is less than 100 nM.

Molecule `CN(C)CCOc1cccc(Nc2nccc(-c3sc(NCCCN4CCOCC4)nc3-c3cccc(NC(=O)c4c(F)cccc4F)c3)n2)c1` displayed an IC50 of less than 100 nM.

With `COc1ccc(Nc2nccc(-c3sc(N)nc3-c3cccc(NC(=O)c4c(F)cccc4F)c3)n2)cc1N1CCN(C)CC1`, the 50% inhibitory concentration (IC50) was less than 100 nM.

`Nc1nc(-c2cccc(NC(=O)c3c(F)cccc3F)c2)c(-c2ccnc(Nc3cccc(CN4CCCC4)c3)n2)s1` showed an IC50 of less than 100 nM.

In turn, `CNc1nc(-c2cccc(NC(=O)c3c(F)cccc3F)c2)c(-c2ccnc(Nc3ccc(OCCN(C)C)c(Cl)c3)n2)s1` had a 50% inhibitory concentration (IC50) of less than 100 nM.

Consider `CN1CCc2ccc(Nc3nccc(-c4sc(N(C)C)nc4-c4cccc(NC(=O)c5c(F)cccc5F)c4)n3)cc2C1`, for which the IC50 was less than 100 nM.

Regarding `O=C(Cc1cccs1)Nc1cccc(-c2ncsc2-c2ccnc(Nc3ccc4c(c3)OCC(=O)N4)n2)c1`, the IC50 is less than 100 nM.

With `CS(=O)(=O)Cc1ccc(Nc2nccc(-c3sc(N)nc3-c3cccc(NC(=O)c4c(F)cccc4F)c3)n2)cc1`, the half-inhibitory concentration (IC50) is less than 100 nM.

Molecule `CN(C)C1Cc2ccc(Nc3nccc(-c4sc(N)nc4-c4cccc(NC(=O)c5c(F)cccc5F)c4)n3)cc2C1` (centres undefined) showed an IC50 of less than 100 nM.

`Cc1nc(-c2cccc(NC(=O)c3c(F)cccc3F)c2)c(-c2ccnc(Nc3ccc(OCCN(C)C)c(F)c3)n2)s1`: the IC50 is less than 100 nM.

`COCCOc1ccc(Nc2nccc(-c3sc(N)nc3-c3cccc(NC(=O)c4cccn4C)c3)n2)cc1F` returned an IC50 of less than 100 nM.

Regarding `CN(C)CCOc1cccc(Nc2nccc(-c3sc(N4CCCCC4)nc3-c3cccc(NC(=O)c4c(F)cccc4F)c3)n2)c1`, the IC50 is less than 100 nM.

For the molecule `Nc1nc(-c2cccc(NC(=O)c3cc(F)ccc3F)c2)c(-c2ccnc(Nc3cccc(-c4cnco4)c3)n2)s1`, the IC50 was less than 100 nM.

In turn, `O=C(Nc1cccc(-c2nc(NCCN3CCOCC3)sc2-c2ccnc(Nc3ccc4c(c3)CNCC4)n2)c1)c1c(F)cccc1F` gave a half-maximal inhibitory concentration (IC50) of less than 100 nM.
